Reference: US20230295200A1 (REGENTS OF THE UNIVERSITY OF MICHIGAN, priority 2022, published 2023)

Tests used:
STAT5A = molecular target: T1, STAT5A (Homo sapiens, UniProt P42229); experiment: Fluorescence polarization (FP) binding assay, STAT5A; conditions: FP competition, 5 nM fluorescein-labeled tracer, 200 nM protein, PBS pH7.4
T1 sequence (P42229 1-794): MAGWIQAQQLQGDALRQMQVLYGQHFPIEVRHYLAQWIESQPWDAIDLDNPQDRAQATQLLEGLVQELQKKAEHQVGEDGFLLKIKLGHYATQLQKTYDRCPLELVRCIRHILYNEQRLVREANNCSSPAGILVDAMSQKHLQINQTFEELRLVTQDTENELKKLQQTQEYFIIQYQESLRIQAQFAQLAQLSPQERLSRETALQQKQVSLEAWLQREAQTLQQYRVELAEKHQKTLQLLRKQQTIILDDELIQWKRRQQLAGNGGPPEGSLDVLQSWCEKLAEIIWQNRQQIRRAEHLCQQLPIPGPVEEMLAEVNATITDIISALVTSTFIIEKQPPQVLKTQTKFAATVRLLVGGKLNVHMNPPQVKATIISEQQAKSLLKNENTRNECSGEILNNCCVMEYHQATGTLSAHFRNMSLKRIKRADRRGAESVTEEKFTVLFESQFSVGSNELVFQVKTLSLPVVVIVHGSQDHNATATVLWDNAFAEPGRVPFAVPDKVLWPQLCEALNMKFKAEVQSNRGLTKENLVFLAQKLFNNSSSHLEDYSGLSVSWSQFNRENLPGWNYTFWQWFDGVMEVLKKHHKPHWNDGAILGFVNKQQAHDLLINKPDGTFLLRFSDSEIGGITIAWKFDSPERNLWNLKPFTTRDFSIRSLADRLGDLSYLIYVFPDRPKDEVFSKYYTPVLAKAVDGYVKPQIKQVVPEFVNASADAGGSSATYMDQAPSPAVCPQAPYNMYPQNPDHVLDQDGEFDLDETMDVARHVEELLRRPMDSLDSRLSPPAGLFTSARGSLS
Summary of the method: (§1)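 Polarization of a 5 nM fluorescein tracer bound by 200 nM STAT protein, measured after 1 h room-temperature equilibration in buffered PBS pH 7.4 with DTT, gave inhibition constants via nonlinear curve fitting.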

STAT6 protein = molecular target: T2, STAT6 protein (Homo sapiens, UniProt P42226); experiment: Fluorescence polarization (FP) binding assay, STAT6; conditions: FP competition, 5 nM fluorescein-labeled tracer, 200 nM protein, PBS pH7.4; read-out: Binding STAT6
T2 sequence (P42226 1-847): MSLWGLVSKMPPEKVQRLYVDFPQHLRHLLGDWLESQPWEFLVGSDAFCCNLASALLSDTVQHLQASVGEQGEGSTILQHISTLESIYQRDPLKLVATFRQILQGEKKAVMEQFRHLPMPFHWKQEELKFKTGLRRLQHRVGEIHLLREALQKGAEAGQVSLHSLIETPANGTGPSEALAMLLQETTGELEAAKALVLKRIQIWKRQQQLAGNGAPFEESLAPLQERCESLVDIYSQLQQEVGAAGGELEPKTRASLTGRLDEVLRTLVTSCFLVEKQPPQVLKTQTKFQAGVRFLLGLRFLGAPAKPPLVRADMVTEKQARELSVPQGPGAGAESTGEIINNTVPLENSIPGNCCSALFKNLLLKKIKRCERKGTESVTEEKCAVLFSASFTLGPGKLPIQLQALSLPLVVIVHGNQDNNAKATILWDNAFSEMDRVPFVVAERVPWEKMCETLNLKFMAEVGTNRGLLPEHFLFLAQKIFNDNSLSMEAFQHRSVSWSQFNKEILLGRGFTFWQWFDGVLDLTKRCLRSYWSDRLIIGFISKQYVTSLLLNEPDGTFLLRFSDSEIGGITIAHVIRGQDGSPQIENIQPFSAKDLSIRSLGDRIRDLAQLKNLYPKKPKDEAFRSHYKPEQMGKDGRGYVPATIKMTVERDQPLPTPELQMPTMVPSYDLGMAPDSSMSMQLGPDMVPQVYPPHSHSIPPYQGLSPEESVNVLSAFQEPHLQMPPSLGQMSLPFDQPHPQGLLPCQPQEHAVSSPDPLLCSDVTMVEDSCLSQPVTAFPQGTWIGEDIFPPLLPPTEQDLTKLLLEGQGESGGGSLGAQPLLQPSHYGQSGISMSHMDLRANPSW
Summary of the method: as §1

| Structure (SMILES) | Ki (STAT5A) [µM] | Ki (STAT6 protein) [µM] |
| --- | --- | --- |
| CC(C)(C)[C@H](NC(=O)c1cc2cc(C(F)(F)P(=O)(O)O)ccc2s1)C(=O)N1CCC[C@H]1C(=O)N1CCCCC(c2ccccc2)C1 (stereo partly drawn) [Compound 125, ((2-(((2S)-3,3-dimethyl-1-oxo-1-((2S)-2-(3-phenylazepane-1-carbonyl)pyrrolidin-1-yl)butan-2-yl)carbamoyl)benzo[b]thiophen-5-yl)difluoromethyl)phosphonic acid] | 1 to 10 | 0.1 to 1 |
| CC1COC(c2ccccc2)CN1C(=O)[C@@H]1CCCN1C(=O)[C@@H](NC(=O)c1cc2cc(C(F)(F)P(=O)(O)O)ccc2s1)C(C)(C)C (stereo partly drawn) [Compound 126, ((2-(((2S)-3,3-dimethyl-1-((2S)-2-(5-methyl-2-phenylmorpholine-4-carbonyl)pyrrolidin-1-yl)-1-oxobutan-2-yl)carbamoyl)benzo[b]thiophen-5-yl)difluoromethyl)phosphonic acid] | 1 to 10 | 0.1 to 1 |
| CC(C)(C)[C@H](NC(=O)c1cc2cc(C(F)(F)P(=O)(O)O)ccc2s1)C(=O)N1CCC[C@H]1C(=O)N1CCOC(c2cccs2)C1 (stereo partly drawn) [Compound 127, ((2-(((2S)-3,3-dimethyl-1-oxo-1-((2S)-2-(2-(thiophen-2-yl)morpholine-4-carbonyl)pyrrolidin-1-yl)butan-2-yl)carbamoyl)benzo[b]thiophen-5-yl)difluoromethyl)phosphonic acid] | 1 to 10 | 0.1 to 1 |
| CC(C)(C)[C@H](NC(=O)c1cc2cc(C(F)(F)P(=O)(O)O)ccc2s1)C(=O)N1CCC[C@H]1C(=O)N1CCOC(c2nccs2)C1 (stereo partly drawn) [Compound 128, ((2-(((2S)-3,3-dimethyl-1-oxo-1-((2S)-2-(2-(thiazol-2-yl)morpholine-4-carbonyl)pyrrolidin-1-yl)butan-2-yl)carbamoyl)benzo[b]thiophen-5-yl)difluoromethyl)phosphonic acid] | > 10 | 1 to 10 |
| CC(C)(C)[C@H](NC(=O)c1cc2cc(C(F)(F)P(=O)(O)O)ccc2s1)C(=O)N1CCC[C@H]1C(=O)N1CCOC(c2cccc3ccccc23)C1 (stereo partly drawn) [Compound 129, ((2-(((2S)-3,3-dimethyl-1-((2S)-2-(2-(naphthalen-1-yl)morpholine-4-carbonyl)pyrrolidin-1-yl)-1-oxobutan-2-yl)carbamoyl)benzo[b]thiophen-5-yl)difluoromethyl)phosphonic acid] | 1 to 10 | 0.1 to 1 |
| CC(C)(C)[C@H](NC(=O)c1cc2cc(C(F)(F)P(=O)(O)O)ccc2s1)C(=O)N1CCC[C@H]1C(=O)N1CCOC(c2cccnc2)C1 (stereo partly drawn) [Compound 130, ((2-(((2S)-3,3-dimethyl-1-oxo-1-((2S)-2-(2-(pyridin-3-yl)morpholine-4-carbonyl)pyrrolidin-1-yl)butan-2-yl)carbamoyl)benzo[b]thiophen-5-yl)difluoromethyl)phosphonic acid] | > 10 | 0.1 to 1 |
| CC(C)(C)[C@H](NC(=O)c1cc2cc(C(F)(F)P(=O)(O)O)ccc2s1)C(=O)N1CCC[C@H]1C(=O)N1CCOC(c2ccncc2)C1 (stereo partly drawn) [Compound 131, ((2-(((2S)-3,3-dimethyl-1-oxo-1-((2S)-2-(2-(pyridin-4-yl)morpholine-4-carbonyl)pyrrolidin-1-yl)butan-2-yl)carbamoyl)benzo[b]thiophen-5-yl)difluoromethyl)phosphonic acid] | > 10 | 1 to 10 |
| CC(C)(C)[C@H](NC(=O)c1cc2cc(C(F)(F)P(=O)(O)O)ccc2s1)C(=O)N1CCC[C@H]1C(=O)N1CCSC(c2ccccc2)C1 (stereo partly drawn) [Compound 132, ((2-(((2S)-3,3-dimethyl-1-oxo-1-((2S)-2-(2-phenylthiomorpholine-4-carbonyl)pyrrolidin-1-yl)butan-2-yl)carbamoyl)benzo[b]thiophen-5-yl)difluoromethyl)phosphonic acid] | 0.1 to 1 | 0.1 to 1 |
| CC(C)(C)[C@H](NC(=O)c1cc2cc(C(F)(F)P(=O)(O)O)ccc2s1)C(=O)N1CCC[C@H]1C(=O)N1CCOC(Cc2ccccc2)C1 (stereo partly drawn) [Compound 133, ((2-(((2S)-1-((2S)-2-(2-benzylmorpholine-4-carbonyl)pyrrolidin-1-yl)-3,3-dimethyl-1-oxobutan-2-yl)carbamoyl)benzo[b]thiophen-5-yl)difluoromethyl)phosphonic acid] | > 10 | 1 to 10 |
| CC(C)(C)[C@H](NC(=O)c1cc2cc(C(F)(F)P(=O)(O)O)ccc2s1)C(=O)N1CCC[C@H]1C(=O)N1CCOC(C2CCCCC2)C1 (stereo partly drawn) [Compound 134, ((2-(((2S)-1-((2S)-2-(2-cyclohexylmorpholine-4-carbonyl)pyrrolidin-1-yl)-3,3-dimethyl-1-oxobutan-2-yl)carbamoyl)benzo[b]thiophen-5-yl)difluoromethyl)phosphonic acid] | > 10 | 1 to 10 |
| CC(C)(C)[C@H](NC(=O)c1cc2cc(C(F)(F)P(=O)(O)O)ccc2s1)C(=O)N1CCC[C@H]1C(=O)N1CCS(=O)(=O)[C@H](c2ccccc2)C1 [Compound 135, ((2-(((S)-1-((S)-2-((R)-1,1-dioxido-2-phenylthiomorpholine-4-carbonyl)pyrrolidin-1-yl)-3,3-dimethyl-1-oxobutan-2-yl)carbamoyl)benzo[b]thiophen-5-yl)difluoromethyl)phosphonic acid] | 1 to 10 | 0.1 to 1 |
| CC(C)(C)[C@H](NC(=O)c1cc2cc(C(F)(F)P(=O)(O)O)ccc2s1)C(=O)N1CCC[C@H]1C(=O)N1CCS(=O)(=O)[C@@H](c2ccccc2)C1 [Compound 136, ((2-(((S)-1-((S)-2-((S)-1,1-dioxido-2-phenylthiomorpholine-4-carbonyl)pyrrolidin-1-yl)-3,3-dimethyl-1-oxobutan-2-yl)carbamoyl)benzo[b]thiophen-5-yl)difluoromethyl)phosphonic acid] | 1 to 10 | 0.1 to 1 |
| CC(C)(C)[C@H](NC(=O)c1cc2cc(C(F)(F)P(=O)(O)O)ccc2s1)C(=O)N1CCC[C@H]1C(=O)N1CCC(O)C(c2ccccc2)C1 (stereo partly drawn) [Compound 137, (difluoro(2-(((2S)-1-((2S)-2-(4-hydroxy-3-phenylpiperidine-1-carbonyl)pyrrolidin-1-yl)-3,3-dimethyl-1-oxobutan-2-yl)carbamoyl)benzo[b]thiophen-5-yl)methyl)phosphonic acid] | > 10 | 1 to 10 |
| CC(C)(C)[C@H](NC(=O)c1cc2cc(C(F)(F)P(=O)(O)O)ccc2s1)C(=O)N1CCC[C@H]1C(=O)N1CCOC(c2ccccn2)C1 (stereo partly drawn) [Compound 140, ((2-(((2S)-3,3-dimethyl-1-oxo-1-((2S)-2-(2-(pyridin-2-yl)morpholine-4-carbonyl)pyrrolidin-1-yl)butan-2-yl)carbamoyl)benzo[b]thiophen-5-yl)difluoromethyl)phosphonic acid] | > 10 | 0.1 to 1 |
| CC(C)(C)[C@H](NC(=O)c1cc2cc(C(F)(F)P(=O)(O)O)ccc2s1)C(=O)N1Cc2ccccc2C1C(=O)N1CCO[C@H](c2ccccc2)C1 (stereo partly drawn) [Compound 141, ((2-(((2S)-3,3-dimethyl-1-oxo-1-(1-((R)-2-phenylmorpholine-4-carbonyl)isoindolin-2-yl)butan-2-yl)carbamoyl)benzo[b]thiophen-5-yl)difluoromethyl)phosphonic acid] | 1 to 10 | 0.1 to 1 |
